{"source": "patent US11427544B2", "about": "“Histone deacetylase 6 inhibitors and use thereof” (TAIPEI MEDICAL UNIVERSITY, priority 2016, dated 2022)", "key": {"[1]": {"assay": "Safety in ICR mice, 7-day intraperitoneal dosing", "type": "in vivo", "settings": "50, 100, and 200 mg/kg intraperitoneally once a day for 7 days, monitored another 7 days", "method": "In addition, both Compounds 12 and 28 were studied to evaluate their safety in animals.\n[…]. The animals were dosed intraperitoneally once a day for 7 days and then monitored for another 7 days. The animals were weighed daily for 1 week and then twice weekly."}, "MDA-MB-231 Breast": {"test_system": "MDA-MB-231 Breast", "assay": "Tumor growth inhibition, MDA-MB-231 xenograft", "type": "in vivo, athymic nude mice", "settings": "qd, intraperitoneal", "method": "(§1) An in vivo study was conducted to evaluate the efficacy of compounds of Formula (I) in suppressing tumor growth in multiple human cancer types.\n(§2) Eight-week-old athymic nude mice were group-housed under conditions of constant photoperiod (12 h light/12 h dark at 21-23° C. and 60-85% humidity) with ad libitum access to sterilized food and water. All animal experiments followed ethical standards, and protocols were reviewed and approved by the Animal Use and Management Committee of National Taiwan University. Each mouse was inoculated subcutaneously with 1×10^6˜1×10^7 human cancer cells in a total volume of 0.1 mL serum-free medium containing 50% Matrigel (BD Biosciences). As tumors became established (˜100 mm^3), mice were randomized to various groups to be treated with pre-determined materials (n=6-8/group): (i) control group: 0.5% DMSO/0.5% Cremophor/90% D5W and (ii) treatment groups: Compounds 12 and 28 at pre-determined doses daily. Mice received treatment by intraperitoneal injection for the duration of the study. Tumors were measured weekly using calipers. Tumor size, in mm^3, was calculated according to the formula: Tumor volume=(w^2×l)/2, where w and 1 respectively represent the width and length (both in mm) of the tumor."}, "[2]": {"test_system": "BJAB Burkitt lymphoma-derived B-cell", "assay": "Tumor growth inhibition, BJAB xenograft", "type": "in vivo, athymic nude mice", "settings": "qd, intraperitoneal", "method": "as §1, §2"}, "[3]": {"test_system": "MDA-MB-231 Breast cancer cell line", "assay": "Antiproliferative activity, MDA-MB-231", "type": "cell-based, human", "settings": "Homo sapiens, MDA-MB-231, MDA-MB-231", "method": "(§3) A study was conducted to evaluate the inhibitory activity of compounds of Formula (I) in inhibiting HDAC6, antiproliferative activity of test compounds in suppressing cancer cell growth, and selectivity of inhibiting HDAC6 over other HDAC isoforms.\n(§4) The study was performed according to the protocol reported in Hsieh et al., Cell Death and Disease, 2014, April; 5:e1166.\n(§5) Shown in Table 2 below are antiproliferative activities (measured by their half maximal concentration for inhibiting cell growth, i.e., GI50) of the test compounds against various cancer cell lines."}, "[4]": {"test_system": "PC-3 prostate cancer cell line", "assay": "Antiproliferative activity, PC-3", "type": "cell-based, human", "settings": "Homo sapiens", "method": "as §3, §4, §5"}, "[5]": {"test_system": "RPMI-8226 Multiple myeloma", "assay": "Tumor growth inhibition, RPMI-8226 xenograft", "type": "in vivo, athymic nude mice", "settings": "50 mg/kg, qd", "method": "as §1, §2"}, "polyubiquited proteins": {"test_system": "polyubiquited proteins", "assay": "Accumulation of polyubiquited proteins", "type": "cell-based", "settings": "dose-dependent", "method": "A study was conducted to evaluate the activity of a compound of Formula (I) in inhibiting HDAC6-dynein binding and inducing accumulation of polyubiquited proteins.\nCell lysates were immunoprecipitated overnight at 4° C. with 1 μg of dynein antibody and A/G-agarose beads. The precipitated beads were washed three times with 1 mL of an ice-cold cell lysis buffer solution. The resulting immune complex was resolved by 10% SDS-PAGE gel electrophoresis, followed by immunoblotting assay using anti-HDAC6 Ab.\nThe study was performed according to the protocol reported in Chen et al., Journal of Immunology, 2008, 181(12):8441-8449."}}, "data": [{"smiles": "O=C(NO)c1ccc(CNc2cccc3cccnc23)cc1", "note": "[Compound 28, N-hydroxy-4-((quinolin-8-ylamino)methyl)benzamide]", "values": [{"measurement": "tolerability", "setting": "[1]", "value": "well tolerated"}, {"measurement": "% TGI", "setting": "MDA-MB-231 Breast; 25 mg/kg", "value": 38.6, "unit": "%"}, {"measurement": "% TGI", "setting": "MDA-MB-231 Breast; 50 mg/kg", "value": 56.4, "unit": "%"}, {"measurement": "% TGI", "setting": "[2]; 25 mg/kg", "value": 40.8, "unit": "%"}, {"measurement": "% TGI", "setting": "[2]; 50 mg/kg", "value": 74.0, "unit": "%"}, {"measurement": "GI50", "setting": "[3]", "value": "1.89 ± 0.33", "unit": "µM"}, {"measurement": "GI50", "setting": "[4]", "value": "3.4 ± 0.13", "unit": "µM"}, {"measurement": "Best Response", "setting": "[5]; CR: complete regression", "value": 2, "unit": "× CR^a"}, {"measurement": "% TGI", "setting": "[5]; intraperitoneal", "value": 80.0, "unit": "%"}, {"measurement": "accumulation of polyubiquited proteins", "setting": "polyubiquited proteins", "value": "induced accumulation of polyubiquited proteins"}]}]}
